The compounds below were run against T1, mutant G12C K-RAS (Homo sapiens, UniProt P01116, G12C) (assay: covalent adduct formation (CAF) with mutant G12C K-RAS). Settings: Table 6; 10 μM, 1 h.
T1 construct: made in house; host or cells: E. coli BL21
Type: binding
Protocol: Embodiments disclosed herein are further illustrated by the following examples in Tables 1-4 and the Examples hereinbelow. The Tables indicate the compound number, structure, the observed mass spectral molecular weight peak, and covalent adduct formation (CAF) with a mutant G12C K-RAS after 60 minutes at a concentration of 10 micromolar.

Row | SMILES | % CAF @ 10 μM,1 h
1 | C=CC(=O)N1CCN(c2nc(=O)n3c4c(c(-c5ccc(F)cc5F)cc(CC#N)c24)OCC3)CC1 [Example 289, 2-(7-(4-acryloylpiperazin-1-yl)-10-(2,4-difluorophenyl)-5-oxo-2,3-dihydro-5H-[1,4]oxazino[2,3,4-ij]quinazolin-8-yl)acetonitrile] | 13.5%
2 | C=CC(=O)N1C[C@H](C)N(c2nc(=O)n3c4c(c(-c5ccc(F)cc5F)c(Cl)cc24)OC[C@@H]3CN2C[C@H]3CC[C@@H](C2)N3C2COC2)C[C@H]1C [Example 290, (3S)-7-((2S,5R)-4-acryloyl-2,5-dimethylpiperazin-1-yl)-9-chloro-10-(2,4-difluorophenyl)-3-(((1R,5S)-8-(oxetan-3-yl)-3,8-diazabicyclo[3.2.1]octan-3-yl)methyl)-2H-[1,4]oxazino[2,3,4-ij]quinazolin-5(3H)-one] | 92.6%
3 | C=CC(=O)N1C[C@H](C)N(c2nc(=O)n3c4c(c(-c5ccc(F)cc5F)c(Cl)cc24)OC[C@H]3CN2C[C@H]3CC[C@@H](C2)N3C2COC2)C[C@H]1C [Example 291, (3R)-7-((2S,5R)-4-acryloyl-2,5-dimethylpiperazin-1-yl)-9-chloro-10-(2,4-difluorophenyl)-3-(((1R,5S)-8-(oxetan-3-yl)-3,8-diazabicyclo[3.2.1]octan-3-yl)methyl)-2H-[1,4]oxazino[2,3,4-ij]quinazolin-5(3H)-one] | 88.8%
4 | C=CC(=O)N1C[C@H](C)N(c2nc(=O)n3c4c(c(-c5ccc(F)cc5F)c(Cl)cc24)OC[C@@H]3COC[C@@H]2CCCN2C)C[C@H]1C [Example 296, (3S)-7-((2S,5R)-4-acryloyl-2,5-dimethylpiperazin-1-yl)-9-chloro-10-(2,4-difluorophenyl)-3-((((S)-1-methylpyrrolidin-2-yl)methoxy)methyl)-2,3-dihydro-5H-[1,4]oxazino[2,3,4-ij]quinazolin-5-one] | 79.8%
5 | C=CC(=O)N1C[C@H](C)N(c2nc(=O)n3c4c(c(-c5ccc(F)cc5F)c(Cl)cc24)OC[C@H]3CCCN2CC3(COC3)C2)C[C@H]1C [Example 299, (3R)-3-(3-(2-oxa-6-azaspiro[3.3]heptan-6-yl)propyl)-7-((2S,5R)-4-acryloyl-2,5-dimethylpiperazin-1-yl)-9-chloro-10-(2,4-difluorophenyl)-2,3-dihydro-5H-[1,4]oxazino[2,3,4-ij]quinazolin-5-one] | 75.4%
6 | C=CC(=O)N1C[C@H](C)N(c2nc(=O)n3c4c(c(-c5ccc(F)cc5F)c(Cl)cc24)OC[C@H]3CO[C@@H]2CCN(C)C2)C[C@H]1C [Example 302, (3R)-7-((2S,5R)-4-acryloyl-2,5-dimethylpiperazin-1-yl)-9-chloro-10-(2,4-difluorophenyl)-3-((((R)-1-methylpyrrolidin-3-yl)oxy)methyl)-2,3-dihydro-5H-[1,4]oxazino[2,3,4-ij]quinazolin-5-one] | 45.8%
7 | C=CC(=O)N1CCN(c2nc(=O)n3c4c(c(-c5ccc(F)cc5F)c(Cl)cc24)OCC3)[C@@H](CO)C1 [Example 303, 7-((R)-4-acryloyl-2-(hydroxymethyl)piperazin-1-yl)-9-chloro-10-(2,4-difluorophenyl)-2,3-dihydro-5H-[1,4]oxazino[2,3,4-ij]quinazolin-5-one] | 15.4%
8 | C=CC(=O)N1C[C@H](C)N(c2nc(=O)n3c4c(c(-c5ccc(F)cc5F)c(Cl)cc24)OC[C@H]3CCCN2C3CCC2CN(C)C3)C[C@H]1C [Example 311, (3R)-7-((2S,5R)-4-acryloyl-2,5-dimethylpiperazin-1-yl)-9-chloro-10-(2,4-difluorophenyl)-3-(3-(3-methyl-3,8-diazabicyclo[3.2.1]octan-8-yl)propyl)-2,3-dihydro-5H-[1,4]oxazino[2,3,4-ij]quinazolin-5-one] | 64.1%
9 | C=CC(=O)N1C[C@H](C)N(c2nc(=O)n3c4c(c(-c5ccc(F)cc5F)c(Cl)cc24)OC[C@H]3CC2CCN(CC(F)F)CC2)C[C@H]1C [Example 328, (3R)-7-((2S,5R)-4-acryloyl-2,5-dimethylpiperazin-1-yl)-9-chloro-3-((1-(2,2-difluoroethyl)piperidin-4-yl)methyl)-10-(2,4-difluorophenyl)-2H-[1,4]oxazino[2,3,4-ij]quinazolin-5(3H)-one] | 87%

Second part, the compound after the results:

Row | % CAF @ 10 μM,1 h | SMILES
10 | 82.4% | C=CC(=O)N1C[C@H](C)N(c2nc(=O)n3c4c(c(-c5ccc(F)cc5F)c(Cl)cc24)OC[C@H]3CC2(O)CCN(C)CC2)C[C@H]1C [Example 293, (3R)-7-((2S,5R)-4-acryloyl-2,5-dimethylpiperazin-1-yl)-9-chloro-10-(2,4-difluorophenyl)-3-((4-hydroxy-1-methylpiperidin-4-yl)methyl)-2H-[1,4]oxazino[2,3,4-ij]quinazolin-5(3H)-one]
11 | 90.5% | C=CC(=O)N1C[C@H](C)N(c2nc(=O)n3c4c(c(-c5ccc(F)cc5F)c(Cl)cc24)OC[C@H]3COC2CCN(C)CC2)C[C@H]1C [Example 297, (3R)-7-((2S,5R)-4-acryloyl-2,5-dimethylpiperazin-1-yl)-9-chloro-10-(2,4-difluorophenyl)-3-(((1-methylpiperidin-4-yl)oxy)methyl)-2H-[1,4]oxazino[2,3,4-ij]quinazolin-5(3H)-one]
12 | 68% | C=CC(=O)N1C[C@H](C)N(c2nc(=O)n3c4c(c(-c5ccc(F)cc5F)c(Cl)cc24)OC[C@H]3CCCN2CC(F)(F)C2)C[C@H]1C [Example 298, (3R)-7-((2S,5R)-4-acryloyl-2,5-dimethylpiperazin-1-yl)-9-chloro-3-(3-(3,3-difluoroazetidin-1-yl)propyl)-10-(2,4-difluorophenyl)-2,3-dihydro-5H-[1,4]oxazino[2,3,4-ij]quinazolin-5-one]
13 | 45.1% | C=CC(=O)N1C[C@H](C)N(c2nc(=O)n3c4c(c(-c5ccc(F)cc5F)c(Cl)cc24)OC[C@@H]3CC2(O)CCN(C)CC2)C[C@H]1C [Example 304, (3S)-7-((2S,5R)-4-acryloyl-2,5-dimethylpiperazin-1-yl)-9-chloro-10-(2,4-difluorophenyl)-3-((4-hydroxy-1-methylpiperidin-4-yl)methyl)-2,3-dihydro-5H-[1,4]oxazino[2,3,4-ij]quinazolin-5-one]
14 | 51.1% | C=CC(=O)N1C[C@H](C)N(c2nc(=O)n3c4c(c(-c5ccc(F)cc5F)c(Cl)cc24)OC[C@H]3CN(C(=O)[C@@H]2CCCN2C)C2CC2)C[C@H]1C [Example 307, (2S)-N-(((3R)-7-((2S,5R)-4-acryloyl-2,5-dimethylpiperazin-1-yl)-9-chloro-10-(2,4-difluorophenyl)-5-oxo-3,5-dihydro-2H-[1,4]oxazino[2,3,4-ij]quinazolin-3-yl)methyl)-N-cyclopropyl-1-methylpyrrolidine-2-carboxamide]
15 | 53.4% | C=CC(=O)N1C[C@H](C)N(c2nc(=O)n3c4c(c(-c5ccc(F)cc5F)c(Cl)cc24)OC[C@@H]3CN(C(=O)[C@@H]2CCCN2C)C2CC2)C[C@H]1C [Example 310, (2S)-N-(((3S)-7-((2S,5R)-4-acryloyl-2,5-dimethylpiperazin-1-yl)-9-chloro-10-(2,4-difluorophenyl)-5-oxo-2,3-dihydro-5H-[1,4]oxazino[2,3,4-ij]quinazolin-3-yl)methyl)-N-cyclopropyl-1-methylpyrrolidine-2-carboxamide]
16 | 68.2% | C=CC(=O)N1C[C@H](C)N(c2nc(=O)n3c4c(c(-c5ccc(F)cc5F)c(Cl)cc24)OC[C@H]3CCCN2CC3CCC(C2)O3)C[C@H]1C [Example 312, (3R)-3-(3-(8-oxa-3-azabicyclo[3.2.1]octan-3-yl)propyl)-7-((2S,5R)-4-acryloyl-2,5-dimethylpiperazin-1-yl)-9-chloro-10-(2,4-difluorophenyl)-2,3-dihydro-5H-[1,4]oxazino[2,3,4-ij]quinazolin-5-one]
17 | 89.8% | C=CC(=O)N1C[C@H](C)N(c2nc(=O)n3c4c(c(-c5ccc(F)cc5F)c(Cl)cc24)OC[C@H]3CCCN2C[C@H]3C[C@@H]2CO3)C[C@H]1C [Example 315, (3R)-3-(3-((1R,4R)-2-oxa-5-azabicyclo[2.2.1]heptan-5-yl)propyl)-7-((2S,5R)-4-acryloyl-2,5-dimethylpiperazin-1-yl)-9-chloro-10-(2,4-difluorophenyl)-2,3-dihydro-5H-[1,4]oxazino[2,3,4-ij]quinazolin-5-one]
18 | 84.2% | C=CC(=O)N1C[C@H](C)N(c2nc(=O)n3c4c(c(-c5ccc(F)cc5F)c(Cl)cc24)OC[C@H]3CC2CCN(C3COC3)CC2)C[C@H]1C [Example 316, (3R)-7-((2S,5R)-4-acryloyl-2,5-dimethylpiperazin-1-yl)-9-chloro-10-(2,4-difluorophenyl)-3-((1-(oxetan-3-yl)piperidin-4-yl)methyl)-2H-[1,4]oxazino[2,3,4-ij]quinazolin-5(3H)-one]
19 | 81.1% | C=CC(=O)N1C[C@H](C)N(c2nc(=O)n3c4c(c(-c5ccc(F)cc5F)c(C5CC5)cc24)OC[C@H]3CCCN2C[C@@H]3C[C@H]2CO3)C[C@H]1C [Example 323, (3R)-3-(3-((1S,4S)-2-oxa-5-azabicyclo[2.2.1]heptan-5-yl)propyl)-7-((2S,5R)-4-acryloyl-2,5-dimethylpiperazin-1-yl)-9-cyclopropyl-10-(2,4-difluorophenyl)-2,3-dihydro-5H-[1,4]oxazino[2,3,4-ij]quinazolin-5-one]
20 | 63.4% | C=CC(=O)N1C[C@H](C)N(c2nc(=O)n3c4c(c(-c5ccc(F)cc5F)c(Cl)cc24)OC[C@@H]3CC2CCN(C)CC2)C[C@H]1C [Example 324, (3S)-7-((2S,5R)-4-acryloyl-2,5-dimethylpiperazin-1-yl)-9-chloro-10-(2,4-difluorophenyl)-3-((1-methylpiperidin-4-yl)methyl)-2H-[1,4]oxazino[2,3,4-ij]quinazolin-5(3H)-one]
21 | 84.5% | C=CC(=O)N1C[C@H](C)N(c2nc(=O)n3c4c(c(-c5ccc(F)cc5F)c(Cl)cc24)OC[C@H]3CCCN(C)C2COC2)C[C@H]1C [Example 327, (3R)-7-((2S,5R)-4-acryloyl-2,5-dimethylpiperazin-1-yl)-9-chloro-10-(2,4-difluorophenyl)-3-(3-(methyl(oxetan-3-yl)amino)propyl)-2,3-dihydro-5H-[1,4]oxazino[2,3,4-ij]quinazolin-5-one]
